Data as given in US11643636B2, “Method of creating human pluripotent stem cell derived brain pericyte-like cells” (Wisconsin Alumni Research Foundation, priority 2018, dated 2023).

System: hPSCs (H9 hESCs, IMR90C4 and CS03n2 iPSCs)
Test: Differentiation of hPSCs to NCSCs (p75-NGFR/HNK1 immunocytochemistry, flow cytometry)
Format: cell-based, human
Details: CHIR99021 increased to 2 μM in E6-CSF, 15 days
Experimental: We first assessed the capability of E6, a reduced factor medium, to support differentiation of H9 human embryonic stem cells (hESCs) and IMR90C4 and CS03n2 induced pluripotent stem cells (iPSCs) to NCSCs. H9 hESCs were cultured for 15 days in E6 medium supplemented with heparin and pathway modulators previously implicated in hPSC differentiation to NCSCs (48): 1 μM CHIR99021, a GSK3β inhibitor to promote WNT signaling; 10 μM SB431543, an ALK5 antagonist to inhibit Activin/Nodal/TGFβ signaling; and 10 ng/mL FGF2 (E6-CSF).
To examine the effects of BMP inhibition on hPSC differentiation to NCSCs in minimal medium, E6-CSF medium was supplemented with 1 μM dorsomorphin, a BMP type I receptor inhibitor, to generate E6-CSFD.
One day prior to initiating NCSC differentiation, hPSCs maintained in E8 medium were singularized using Accutase and seeded at 9.1×10^4 cells/cm^2 onto Matrigel coated plates with E8+10 μM Y27632. […]
Cells were fixed fifteen minutes at room temperature with either 4% paraformaldehyde (PFA) or 100% ice-cold methanol depending on antibody staining conditions. Cells were rinsed three times in PBS without Ca^2+/Mg^2+ and stored at 4° C. in PBS until ready to stain. […]

With `Cc1c[nH]c(-c2cnc(NCCNc3ccc(C#N)cn3)nc2-c2ccc(Cl)cc2Cl)n1` [CHIR99021] the “induction of p75-NGFR expression” value was “did not aid in inducing p75-NGFR expression”.
